Source: ChEMBL document CHEMBL5230089, “Small-Molecule Fms-like Tyrosine Kinase 3 Inhibitors: An Attractive and Efficient Method for the Treatment of Acute Myeloid Leukemia” (J Med Chem, 2020)
Each block holds one molecule with its values, some of them ahead of it.

Legend:
MV4-11 [1] = experiment: Antiproliferative activity against human MV4-11 cells assessed as cell growth inhibition measured after 48 hrs by cell titer glo assay; assay type: functional, cell-based; conditions: MV4-11, 48 h
[2] = target: T1, Receptor-type tyrosine-protein kinase FLT3 (Homo sapiens, UniProt P36888, ITD)
[3] = target: T1, Receptor-type tyrosine-protein kinase FLT3; experiment: Inhibition of FLT3-ITD mutant (unknown origin) expressed in mouse BaF3 cells assessed as inhibition; assay type: cell-based
MOLM-13 [4] = experiment: Antiproliferative activity against human MOLM-13 cells assessed as reduction in cell viability measured after 48 hrs by MTT assay; assay type: functional, cell-based; conditions: MOLM-13, 48 h
[5] = target: T2, Receptor-type tyrosine-protein kinase FLT3 (Homo sapiens, UniProt P36888); experiment: Inhibition of FLT3 (unknown origin) by ADP-Glo kinase assay
T2 sequence (P36888 whole entry): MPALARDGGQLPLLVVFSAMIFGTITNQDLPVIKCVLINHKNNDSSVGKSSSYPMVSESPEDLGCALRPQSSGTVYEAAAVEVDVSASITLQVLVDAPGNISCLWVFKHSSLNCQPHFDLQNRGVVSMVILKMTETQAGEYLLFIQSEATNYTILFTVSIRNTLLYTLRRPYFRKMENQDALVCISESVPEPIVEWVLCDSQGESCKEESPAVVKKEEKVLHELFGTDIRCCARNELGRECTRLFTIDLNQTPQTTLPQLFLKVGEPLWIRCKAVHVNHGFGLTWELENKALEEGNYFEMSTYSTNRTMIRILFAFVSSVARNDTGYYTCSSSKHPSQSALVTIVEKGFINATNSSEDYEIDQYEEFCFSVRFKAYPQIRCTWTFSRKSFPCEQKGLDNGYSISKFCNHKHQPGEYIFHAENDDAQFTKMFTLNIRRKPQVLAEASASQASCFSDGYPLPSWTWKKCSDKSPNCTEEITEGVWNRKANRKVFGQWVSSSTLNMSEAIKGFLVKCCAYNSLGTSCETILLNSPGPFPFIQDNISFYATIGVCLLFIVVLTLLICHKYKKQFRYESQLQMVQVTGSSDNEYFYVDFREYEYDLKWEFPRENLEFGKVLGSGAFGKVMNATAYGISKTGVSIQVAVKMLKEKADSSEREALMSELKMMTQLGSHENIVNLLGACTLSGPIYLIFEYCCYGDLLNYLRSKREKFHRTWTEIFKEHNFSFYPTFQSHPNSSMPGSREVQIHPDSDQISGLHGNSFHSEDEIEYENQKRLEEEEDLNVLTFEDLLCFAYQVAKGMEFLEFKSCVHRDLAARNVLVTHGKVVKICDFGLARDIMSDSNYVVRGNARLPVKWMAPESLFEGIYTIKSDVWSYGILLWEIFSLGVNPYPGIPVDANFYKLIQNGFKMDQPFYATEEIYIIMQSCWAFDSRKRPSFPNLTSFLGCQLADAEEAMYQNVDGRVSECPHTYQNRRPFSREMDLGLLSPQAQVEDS

MOLM-14 [6] = experiment: Cytotoxicity against human MOLM-14 cells assessed as reduction in cell viability incubated for 72 hrs; assay type: functional, cell-based; conditions: MOLM-14, 72 h
697 = experiment: Cytotoxicity activity against human 697 cells assessed as reduction cell viability at 50 uM incubated for 48 hrs by ATP-glo assay; assay type: functional, cell-based; conditions: Homo sapiens, 697, 48 h
MOLM-14 [7] = experiment: Growth inhibition of human MOLM-14 cells incubated for 72 hrs by CCK-8 assay; assay type: functional
MV4-11 [8] = experiment: Growth inhibition of human MV4-11 cells incubated for 72 hrs by CCK-8 assay; assay type: functional
MOLM-13 [9] = experiment: Growth inhibition of human MOLM-13 cells incubated for 72 hrs by CCK-8 assay; assay type: functional
MV4-11 [10] = experiment: cells; conditions: Homo sapiens, MV4-11, 48 h
Description: Antiproliferative activity against human MV4-11 cells assessed as reduction in cell viability after 48 hrs by Alamar Blue assay

BaF3 [11] = experiment: cells; conditions: Mus musculus, BaF3, 72 h
MOLM-14 [12] = experiment: cells; conditions: Homo sapiens, MOLM-14, 72 h
BaF3 [13] = experiment: cells; conditions: Mus musculus, BaF3, 72 h; remark: listed apart in the source
Aurora kinase A = target: T3, Aurora kinase A (Homo sapiens, UniProt O14965); experiment: Inhibition of Aurora-A (unknown origin) by kinase-glo luminescent assay
T3 sequence (O14965 whole entry): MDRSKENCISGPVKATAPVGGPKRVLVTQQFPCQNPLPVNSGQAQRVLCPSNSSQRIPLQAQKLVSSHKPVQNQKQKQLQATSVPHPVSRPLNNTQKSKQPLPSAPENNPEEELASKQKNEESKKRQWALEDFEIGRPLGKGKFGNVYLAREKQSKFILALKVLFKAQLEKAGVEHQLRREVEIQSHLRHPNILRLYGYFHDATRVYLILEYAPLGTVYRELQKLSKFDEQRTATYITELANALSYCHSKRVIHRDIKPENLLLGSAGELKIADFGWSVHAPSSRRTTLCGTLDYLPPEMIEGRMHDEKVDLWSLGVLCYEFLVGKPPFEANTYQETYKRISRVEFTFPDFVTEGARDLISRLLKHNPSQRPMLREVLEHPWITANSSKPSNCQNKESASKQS

HL-60 = experiment: Growth inhibition of human HL-60 cells incubated for 4 days by WST assay; assay type: functional; conditions: HL-60, 96 h, time 4 day
[14] = target: Receptor-type tyrosine-protein kinase FLT3 (Homo sapiens, UniProt P36888, D835Y); experiment: Inhibition of FLT3-D835Y mutant (unknown origin)
RS4-11 = experiment: Growth inhibition human RS4-11 cell assessed as reduction in cell viability at 50 uM measured after 72 hrs by CCK8 assay; assay type: functional
MV4-11 [15] = experiment: Growth inhibition of human MV4-11 cells assessed as reduction in cell viability at 50 uM measured after 72 hrs by CCK8 assay; assay type: functional
[16] = target: T2, Receptor-type tyrosine-protein kinase FLT3; experiment: Inhibition of FLT3 (unknown origin)

SMILES: CCCCNc1ncc2c(-c3ccc(CN4CCN(C)CC4)cc3)cn([C@H]3CC[C@H](O)CC3)c2n1
IC50 (MOLM-14 [6]): 14 nM
IC50 697: 2.7 nM

SMILES: CCCNc1nc(Nc2ccc(C#N)cc2)ncc1C#CCCCNC(=O)[C@H](C)N(C)C(=O)/C=C/CN(C)C [FF-10101]
GI50 (MOLM-14 [7]): 1.5 nM
GI50 (MV4-11 [8]): 0.83 nM
GI50 (MOLM-13 [9]): 1.1 nM

SMILES: COc1ccc(C(=O)NC(=O)Nc2ccc3c(c2)NC(=O)/C3=C\c2[nH]c(C)c(C(=O)NCCN3CCCC3)c2C)c(F)c1
IC50 (Aurora kinase A): 0.4 nM
IC50 [2]: 0.5 nM

SMILES: CC1=CC(=O)N(Nc2nc(-c3cccs3)nc3sc(C)c(C)c23)C1=O
GI50 (HL-60): > 10000 nM
GI50 (MV4-11 [8]): 216 nM
IC50 [14]: 21 nM
IC50 [2]: 16 nM

SMILES: Cc1cc2ncc(-c3ccc(NC(=O)Nc4cc(C(C)(C)C)on4)cc3)nc2cc1C
IC50 [2]: 71 nM

SMILES: O=C(c1ccncc1)N1CCc2nc(-c3cc4cc(F)ccc4[nH]c3=O)[nH]c2C1
GI50 (RS4-11): 6300 nM
GI50 (MV4-11 [15]): 110 nM
IC50 [16]: 2.7 nM

The remaining lines, values ahead:

IC50 (MV4-11 [1]): 37 nM
IC50 [2]: 0.41 nM
SMILES: COc1cc(Nc2nc3cccc(-c4cccc(C(N)=O)c4)c3o2)ccc1N1CCNCC1

IC50 [3]: 1.1 nM
IC50 (MOLM-13 [4]): 0.24 nM
IC50 [5]: 9 nM
SMILES: COc1cc2c(Oc3ccc(NC(=O)Nc4cccc(C)c4)cc3F)ccnc2cc1OCCCN1CCOCC1

GI50 (MOLM-14 [7]): 42 nM
GI50 (MV4-11 [8]): 22 nM
GI50 (MOLM-13 [9]): 21 nM
SMILES: CN(C)CC(=O)N1CCC[C@@H](n2nc(-c3ccc(Oc4ccccc4)cc3)c3c(N)ncnc32)C1

IC50 (MV4-11 [10]): 3.5 nM
IC50 (BaF3 [11]): 21.4 nM
IC50 (MOLM-14 [12]): 7.5 nM
IC50 (BaF3 [13]): 38.1 nM
SMILES: CN1CCC(Nc2nc(Nc3ccc(Oc4ccccc4)cc3)c3c(=O)[nH]cc(Br)c3n2)CC1 [DENFIVONTINIB]

GI50 (MV4-11 [8]): < 0.3 nM
SMILES: CC(C)(C)c1cc(NC(=O)Nc2ccc(-n3nc(-c4ccc(OCCN5CCOCC5)cc4)c4c(N)ncnc43)cc2)no1

GI50 (HL-60): 250 nM
GI50 (MV4-11 [8]): 540 nM
SMILES: CNCCOc1ccc(-c2sc3nc(-c4cccs4)nc(NN4C(=O)C=C(C)C4=O)c3c2C)cc1

IC50 (MV4-11 [10]): 0.49 nM
IC50 (MOLM-14 [12]): 0.72 nM
IC50 [2]: 6.5 nM
SMILES: Cc1ccc(C(=O)Nc2ccc(CN3CCN(C)CC3)c(C(F)(F)F)c2)cc1C#Cc1c(N)ncc2ccc(Cl)cc12
